# Several values for one entry are separate records, joined by “and”; a condition that tells them apart may be missing. Identical values can stand only once. Like-named read-outs stand apart in the source and are kept apart here. Marks after values point to notes of the source that are not given here.
# Legend:
# [1] = tested on: piglet lungs perfused with human blood
# Method: […] piglets (4-6 kg) were used in an established in situ ex vivo isolated lung perfusion model. Piglet lungs were perfused with unmodified human blood or blood treated with either aurintricarboxylic acid (ATA, 0.5 mg/mL; GPIb inhibitor), SC52012A (SC, 0.2 μg/mL; GPIIb/IIIa antagonist, G.D. Searle & Co. of Chicago, Ill.), or both. Thus, experimental groups received either 500 mg of ATA, 200 μg of SC52012A, or both drugs added to fresh human blood perfusate (pooled from three donors) prior to lung perfusion, while control groups received unmodified blood.
# Pulmonary vascular resistance (PVR) was calculated from pulmonary artery land vein pressures and flow. Pulmonary vein effluent was collected serially for comparison of complement activation (C3a), mast cell activation (histamine) and thromboxane production (TXB2) between groups. Survival endpoints were loss of transpulmonary flow, loss of oxygenation across the lungs, frank tracheal edema, and loss of perfusate volume (˜1L) into lung parenchyma.
# [2] = tested on: piglet lungs perfused with heparinized human blood
# Method: In an established in situ, ex vivo model, piglet lungs were perfused with either heparinized (3,000 U/L) human blood or with blood additionally pretreated with 140 mg/L of bivalirudin (a semisynthetic analogue of hirudin). Pulmonary vein effluent was collected serially for measurement of complement activation (C3a), mast cell activation (histamine), and thrombin formation (F1+2). Survival endpoints were loss of transpulmonary blood flow, loss of oxygenation across the lungs, and sequestration of perfusate volume (˜1 L) into the lung. Statistical comparisons were made using the 2-tailed t-test.
# [3] = tested on: complement (C3a, C5b-9); details: for C3a Mean: mean of two samples; for C3a / C5b-9: single sample
# Method: Platelet poor plasma (PPP—Example 4) and platelet rich plasma (PRP—Example 5) was prepared from human heparinized blood. Human plasma was treated with ATA (0.5 mg/ml), SC (0.5 μg/ml), ATA+SC, bivalirudin (HIRULOG®, 0.1 g/L), or water (negative control) and then incubated in presence of zymosan (10 mg/mL) or cobra venom factor (CVF, 1 or 5 U/mL) to activate complement (negative control is water), for one hour at 37° C. with shaking. Then, the samples were subjected to centrifugation at 10,000 g for 45 minutes. The supernatant was then frozen in small aliquots at −70° C. C3a and C5b-9 levels were then assayed using commercial ELISA kits (Quidel).
# [4] = PPP, CVF 1U, listed as HIRULOG ®
molecule,measurement,setting,value
"O=C(O)C1=CC(=C(c2ccc(O)c(C(=O)O)c2)c2ccc(O)c(C(=O)O)c2)C=CC1=O [ATA, aurintricarboxylic acid]","ΔC3a, 1 min, μg/mL (Mean ± SEM)","[1]; 1 min, pulmonary vein effluent",0.30* μg/mL
same,Platelet sequestration at 10 min,"[1]; 10 min, controls 89%",51%
same,"ΔC3a, 10 min, μg/mL (Mean ± SEM)","[1]; 10 min, pulmonary vein effluent",1.81 µg/mL
same,median survival,[1]; control 12 min,25 min
same,Median Survival in min (95% conf int),"[1]; pig lung perfused with human blood, ATA 0.5 mg/mL, SC 0.2 μg/mL",25* min
bivalirudin,thrombin production limited (as measured by F1+2),[2],more than 90%
same,ΔC3a 1 min μg/ml (± SEM),[2]; 1 min,0.82 (0.8)* μg/ml
same,PVR cm H2O/mL/min 5 min (± SEM),[2]; 5 min,0.16 (.05)* cm H2O/mL/min
same,Δ histamine 10 min nM (± SEM),[2]; 10 min,21 (4)* nM
same,ΔC3a 10 min μg/ml (± SEM),[2]; 10 min,1.97 (1) μg/ml
same,ΔF1 + 2 10 min nM (± SEM),"[2]; 10 min, thrombin formation",0.5 (0.8)* nM
same,Survival Min (± SEM),[2]; bivalirudin 140 mg/L in heparinized human blood,77 (22)* Min
same,mean survival,[2]; control 8 minutes,77 min
same,Complement activation,[2]; in words,significantly blunted
same,histamine release,[2]; in words,significantly decreased
same,intrapulmonary platelet sequestration,[2]; in words,significantly blunted
same,rise in PVR,[2]; in words,significantly decreased
same,C5b-9 Mean,"[3]; PPP, CVF 1U",917 ng/mL
same,C3a Mean,"[3]; PPP, CVF 1U",1350 ng/mL
same,C3a,[3]; [4],1250 ng/mL and 1450 ng/mL
same,C5b-9,[3]; [4],890 ng/mL and 943 ng/mL
same,C5b-9 Mean,"[3]; PPP, water (no activator)",26 ng/mL
same,C3a Mean,"[3]; PPP, water (no activator)",548 ng/mL
same,C5b-9,"[3]; PPP, water (no activator)",26 ng/mL
same,C3a,"[3]; PPP, water (no activator), 1 h 37° C., listed as HIRULOG ®",590 ng/mL and 505 ng/mL
same,C5b-9 Mean,"[3]; PRP, CVF 1U",842 ng/mL
same,C3a Mean,"[3]; PRP, CVF 1U",1650 ng/mL
same,C5b-9,"[3]; PRP, CVF 1U",842 ng/mL
same,C3a,"[3]; PRP, CVF 1U, listed as HIRULOG ®",1800 ng/mL and 1500 ng/mL
same,C5b-9 Mean,"[3]; PRP, water (no activator)",126 ng/mL
same,C3a Mean,"[3]; PRP, water (no activator)",435 ng/mL
same,C5b-9,"[3]; PRP, water (no activator)",126 ng/mL
same,C3a,"[3]; PRP, water (no activator), 1 h 37° C., listed as HIRULOG ®",490 ng/mL and 380 ng/mL
